# Results reported in ChEMBL document CHEMBL4145553, “Design, synthesis, and biological evaluation of novel amide and hydrazide based thioether analogs targeting Histone deacteylase (HDAC) enzymes” (Eur J Med Chem, 2018).
# What was measured:
# HL-60(TB) = test: Growth inhibition of human HL-60(TB) cells at 10 uM incubated for 48 hrs by sulforhodamine B assay relative to control; type: functional; conditions: HL-60, 48 h, values are per cent of control
# HOP-92 = test: Growth inhibition of human HOP92 cells at 10 uM incubated for 48 hrs by sulforhodamine B assay relative to control; type: functional; conditions: HOP-92, 48 h, values are per cent of control
# NCI-H23 = test: Growth inhibition of human NCI-H23 cells at 10 uM incubated for 48 hrs by sulforhodamine B assay relative to control; type: functional; conditions: NCI-H23, 48 h, values are per cent of control
# NCI-H322M = test: Growth inhibition of human NCI-H322M cells at 10 uM incubated for 48 hrs by sulforhodamine B assay relative to control; type: functional; conditions: values are per cent of control
# NCI-H460 = test: Growth inhibition of human NCI-H460 cells at 10 uM incubated for 48 hrs by sulforhodamine B assay relative to control; type: functional; conditions: NCI-H460, 48 h, values are per cent of control
# TK-10 = test: Growth inhibition of human TK10 cells at 10 uM incubated for 48 hrs by sulforhodamine B assay relative to control; type: functional; conditions: TK-10, 48 h, values are per cent of control
# SN12C = test: Growth inhibition of human SN12C cells at 10 uM incubated for 48 hrs by sulforhodamine B assay relative to control; type: functional; conditions: values are per cent of control
# CAKI-1 = test: Growth inhibition of human Caki1 cells at 10 uM incubated for 48 hrs by sulforhodamine B assay relative to control; type: functional; conditions: CAKI-1, 48 h, values are per cent of control
# ACHN = test: Growth inhibition of human ACHN cells at 10 uM incubated for 48 hrs by sulforhodamine B assay relative to control; type: functional; conditions: values are per cent of control
# A498 = test: Growth inhibition of human A498 cells at 10 uM incubated for 48 hrs by sulforhodamine B assay relative to control; type: functional; conditions: A498, 48 h, values are per cent of control
# UO-31 = test: Growth inhibition of human UO31 cells at 10 uM incubated for 48 hrs by sulforhodamine B assay relative to control; type: functional; conditions: UO-31, 48 h, values are per cent of control
# PC-3 = test: Growth inhibition of human PC3 cells at 10 uM incubated for 48 hrs by sulforhodamine B assay relative to control; type: functional; conditions: PC-3, 48 h, values are per cent of control
# MDA-MB-231 = test: Growth inhibition of human MDA-MB-231 cells at 10 uM incubated for 48 hrs by sulforhodamine B assay relative to control; type: functional; conditions: MDA-MB-231, 48 h, values are per cent of control
# BT-549 = test: Growth inhibition of human BT549 cells at 10 uM incubated for 48 hrs by sulforhodamine B assay relative to control; type: functional; conditions: BT-549, 48 h, values are per cent of control
# SR = test: Growth of human SR cells at 10 uM incubated for 48 hrs by sulforhodamine B assay relative to control
# KM12 = test: Growth of human KM12 cells at 10 uM incubated for 48 hrs by sulforhodamine B assay relative to control; conditions: KM12, 48 h
# K562 = test: Growth of human K562 cells at 10 uM incubated for 48 hrs by sulforhodamine B assay relative to control; conditions: K562, 48 h
# EKVX = test: Growth of human EKVX cells at 10 uM incubated for 48 hrs by sulforhodamine B assay relative to control
# SNB-19 = test: Growth of human SNB19 cells at 10 uM incubated for 48 hrs by sulforhodamine B assay relative to control; conditions: SNB-19, 48 h
# SF-539 = test: Growth of human SF539 cells at 10 uM incubated for 48 hrs by sulforhodamine B assay relative to control; conditions: SF-539, 48 h
# SF-268 = test: Growth of human SF268 cells at 10 uM incubated for 48 hrs by sulforhodamine B assay relative to control; conditions: SF-268, 48 h
# HT-29 = test: Growth of human HT-29 cells at 10 uM incubated for 48 hrs by sulforhodamine B assay relative to control; conditions: HT-29, 48 h
# HCT-15 = test: Growth of human HCT15 cells at 10 uM incubated for 48 hrs by sulforhodamine B assay relative to control; conditions: HCT-15, 48 h
# MOLT-4 = test: Growth of human MOLT4 cells at 10 uM incubated for 48 hrs by sulforhodamine B assay relative to control; conditions: MOLT-4, 48 h
# HOP-62 = test: Growth of human HOP62 cells at 10 uM incubated for 48 hrs by sulforhodamine B assay relative to control; conditions: HOP-62, 48 h
# OVCAR-5 = test: Growth of human OVCAR5 cells at 10 uM incubated for 48 hrs by sulforhodamine B assay relative to control; conditions: OVCAR-5, 48 h
# OVCAR-4 = test: Growth of human OVCAR4 cells at 10 uM incubated for 48 hrs by sulforhodamine B assay relative to control; conditions: OVCAR-4, 48 h
# IGROV-1 = test: Growth of human IGROV1 cells at 10 uM incubated for 48 hrs by sulforhodamine B assay relative to control; conditions: IGROV-1, 48 h
# HCT-116 = test: Growth of human HCT116 cells at 10 uM incubated for 48 hrs by sulforhodamine B assay relative to control; conditions: HCT-116, 48 h
# NCI-H522 = test: Growth of human NCI-H522 cells at 10 uM incubated for 48 hrs by sulforhodamine B assay relative to control; conditions: NCI-H522, 48 h
# RPMI-8226 = test: Growth of human RPMI8226 cells at 10 uM incubated for 48 hrs by sulforhodamine B assay relative to control; conditions: RPMI-8226, 48 h
# SK-MEL-28 = test: Growth of human SK-MEL-28 cells at 10 uM incubated for 48 hrs by sulforhodamine B assay relative to control; conditions: SK-MEL-28, 48 h
# MDA-MB-435 = test: Growth of human MDA-MB-435 cells at 10 uM incubated for 48 hrs by sulforhodamine B assay relative to control; conditions: MDA-MB-435, 48 h
structure (smiles),measurement,setting,value
CCS/C(Nc1ccccc1)=C(\C#N)C(=O)Nc1ccc(OC)cc1,"growth, % of control at 10 µM",HL-60(TB),-15.6%
same,"growth, % of control at 10 µM",HOP-92,44.5%
same,"growth, % of control at 10 µM",NCI-H23,48.3%
same,"growth, % of control at 10 µM",NCI-H322M,51.6%
same,"growth, % of control at 10 µM",NCI-H460,10.1%
same,"growth, % of control at 10 µM",TK-10,47.6%
same,"growth, % of control at 10 µM",SN12C,37.8%
same,"growth, % of control at 10 µM",CAKI-1,40.4%
same,"growth, % of control at 10 µM",ACHN,51.9%
same,"growth, % of control at 10 µM",A498,22.7%
same,"growth, % of control at 10 µM",UO-31,50%
same,"growth, % of control at 10 µM",PC-3,47.9%
same,"growth, % of control at 10 µM",MDA-MB-231,44.5%
same,"growth, % of control at 10 µM",BT-549,40.5%
same,"growth, % of control at 10 µM",SR,6.62%
same,"growth, % of control at 10 µM",KM12,31%
same,"growth, % of control at 10 µM",K562,7.34%
same,"growth, % of control at 10 µM",EKVX,52.4%
same,"growth, % of control at 10 µM",SNB-19,23.1%
same,"growth, % of control at 10 µM",SF-539,29.1%
same,"growth, % of control at 10 µM",SF-268,39.1%
same,"growth, % of control at 10 µM",HT-29,6.46%
same,"growth, % of control at 10 µM",HCT-15,16.9%
same,"growth, % of control at 10 µM",MOLT-4,10.1%
same,"growth, % of control at 10 µM",HOP-62,34.2%
same,"growth, % of control at 10 µM",OVCAR-5,63.1%
same,"growth, % of control at 10 µM",OVCAR-4,66.7%
same,"growth, % of control at 10 µM",IGROV-1,55.7%
same,"growth, % of control at 10 µM",HCT-116,14.3%
same,"growth, % of control at 10 µM",NCI-H522,0.63%
same,"growth, % of control at 10 µM",RPMI-8226,25.2%
same,"growth, % of control at 10 µM",SK-MEL-28,58.9%
same,"growth, % of control at 10 µM",MDA-MB-435,-47.9%
CCS/C(Nc1ccccc1)=C(\C#N)C(=O)Nc1ccc(C)cc1,"growth, % of control at 10 µM",HL-60(TB),45.9%
same,"growth, % of control at 10 µM",HOP-92,62.3%
same,"growth, % of control at 10 µM",NCI-H23,94%
same,"growth, % of control at 10 µM",NCI-H322M,96.6%
same,"growth, % of control at 10 µM",NCI-H460,98.8%
same,"growth, % of control at 10 µM",TK-10,81.7%
same,"growth, % of control at 10 µM",SN12C,94.3%
same,"growth, % of control at 10 µM",CAKI-1,86.8%
same,"growth, % of control at 10 µM",ACHN,96.8%
same,"growth, % of control at 10 µM",A498,79.4%
same,"growth, % of control at 10 µM",UO-31,75.3%
same,"growth, % of control at 10 µM",PC-3,97%
same,"growth, % of control at 10 µM",MDA-MB-231,98.9%
same,"growth, % of control at 10 µM",BT-549,103%
same,"growth, % of control at 10 µM",SR,64.2%
same,"growth, % of control at 10 µM",KM12,96.6%
same,"growth, % of control at 10 µM",K562,80.1%
same,"growth, % of control at 10 µM",EKVX,97.4%
same,"growth, % of control at 10 µM",SNB-19,93.3%
same,"growth, % of control at 10 µM",SF-539,98.2%
same,"growth, % of control at 10 µM",SF-268,86.8%
same,"growth, % of control at 10 µM",HT-29,89%
same,"growth, % of control at 10 µM",HCT-15,94.8%
same,"growth, % of control at 10 µM",MOLT-4,56.6%
same,"growth, % of control at 10 µM",HOP-62,103%
same,"growth, % of control at 10 µM",OVCAR-5,101%
same,"growth, % of control at 10 µM",OVCAR-4,101%
same,"growth, % of control at 10 µM",IGROV-1,99%
same,"growth, % of control at 10 µM",HCT-116,90%
same,"growth, % of control at 10 µM",NCI-H522,71.2%
same,"growth, % of control at 10 µM",RPMI-8226,86%
same,"growth, % of control at 10 µM",SK-MEL-28,109%
same,"growth, % of control at 10 µM",MDA-MB-435,102%
CC(C)(C)S/C(Nc1ccccc1)=C(\C#N)C(=O)N/N=C\c1ccco1,"growth, % of control at 10 µM",HL-60(TB),63.6%
same,"growth, % of control at 10 µM",HOP-92,82.3%
same,"growth, % of control at 10 µM",NCI-H23,99%
same,"growth, % of control at 10 µM",NCI-H322M,102%
same,"growth, % of control at 10 µM",NCI-H460,102%
same,"growth, % of control at 10 µM",TK-10,103%
same,"growth, % of control at 10 µM",SN12C,103%
same,"growth, % of control at 10 µM",CAKI-1,95.8%
same,"growth, % of control at 10 µM",ACHN,98%
same,"growth, % of control at 10 µM",A498,87%
same,"growth, % of control at 10 µM",UO-31,90.2%
same,"growth, % of control at 10 µM",PC-3,90.7%
same,"growth, % of control at 10 µM",MDA-MB-231,99.6%
same,"growth, % of control at 10 µM",BT-549,103%
same,"growth, % of control at 10 µM",SR,76.5%
same,"growth, % of control at 10 µM",KM12,104%
same,"growth, % of control at 10 µM",K562,100%
same,"growth, % of control at 10 µM",EKVX,91.9%
same,"growth, % of control at 10 µM",SNB-19,96.9%
same,"growth, % of control at 10 µM",SF-539,94.3%
same,"growth, % of control at 10 µM",SF-268,99.7%
same,"growth, % of control at 10 µM",HT-29,87.2%
same,"growth, % of control at 10 µM",HCT-15,99.2%
same,"growth, % of control at 10 µM",MOLT-4,88.6%
same,"growth, % of control at 10 µM",HOP-62,93.8%
same,"growth, % of control at 10 µM",OVCAR-5,101%
same,"growth, % of control at 10 µM",OVCAR-4,104%
same,"growth, % of control at 10 µM",IGROV-1,106%
same,"growth, % of control at 10 µM",HCT-116,82.9%
same,"growth, % of control at 10 µM",NCI-H522,71.1%
same,"growth, % of control at 10 µM",RPMI-8226,106%
same,"growth, % of control at 10 µM",SK-MEL-28,106%
same,"growth, % of control at 10 µM",MDA-MB-435,101%
